Series [1] relates to MG1655 (E. coli). Put plainly: Minimal inhibitory concentration (MIC). It is filed as cell-based, Escherichia coli. The conditions noted are these: without polypeptide. The method, then:
(§1) Gram-negative bacteria, DH5a (E. coli), MG1655 (E. coli), C101 (Pseudomonas aeruginosa), and Gram-positive bacteria, ATCC12608 (S. aureus), ATCC11778 (Bacillus toyonensis), and methicillin-resistant S. aureus (MRSA) strains, NRS382, NRS383, NRS384 were grown in LB medium at 37° C. Clinical isolated Helicobacter pylori strains, B107, J291, J99, J99-AF, J99-A9 and J99-A11 were incubated in BB with 10% FBS supplemented with vancomycin (5 μg/mL) at 37° C. Among them, J99-AF, J99-A9 and J99-A11 are drug resistant bacteria. For determination of the MIC, polypeptides were dissolved in media using serial dilutions from a stock solution. Into each well of a 96-well plate was added 200 μL of each concentration and 2 μL of bacteria (1×10^8 CFU (colony forming units)) in medium. The plate was incubated at 37° C. The optical density readings of microorganism solutions were measured after 24 h incubation. The MIC was considered as the lowest concentration of peptide where no visual growth of bacteria was detected.

The subject of series [2] is C101 (Pseudomonas aeruginosa). Description: Minimal inhibitory concentration (MIC). It is filed as cell-based. The conditions noted are these: without polypeptide. The method, then: as §1
Series [3] has as its system ATCC12608 (Staphylococcus aureus). Put plainly: Minimal inhibitory concentration (MIC). It is filed as cell-based. The conditions noted are these: without polypeptide. On the procedure: as §1
The stability of polypeptide was tested in the MIC assay in different environments, including salts, serum, plasma, tear fluid, and mucin. […]

For series [4], the system named is ATCC11778 (Bacillus toyonensis). Put plainly: Minimal inhibitory concentration (MIC). It is filed as cell-based. The following applies: without polypeptide. The method, then:
as §1

For series [5], the system named is DH5α (Escherichia coli). Description: Minimal inhibitory concentration (MIC). It is filed as cell-based. The conditions noted are these: without polypeptide.
Method: Gram-negative bacteria, DH5a (E. coli), MG1655 (E. coli), C101 (Pseudomonas aeruginosa), and Gram-positive bacteria, ATCC12608 (S. aureus), ATCC11778 (Bacillus toyonensis), and methicillin-resistant S. aureus (MRSA) strains, NRS382, NRS383, NRS384 were grown in LB medium at 37° C. […] For determination of the MIC, polypeptides were dissolved in media using serial dilutions from a stock solution. Into each well of a 96-well plate was added 200 μL of each concentration and 2 μL of bacteria (1×10^8 CFU (colony forming units)) in medium. The plate was incubated at 37° C. The optical density readings of microorganism solutions were measured after 24 h incubation. The MIC was considered as the lowest concentration of peptide where no visual growth of bacteria was detected.
The subject of series [6] is trypsin, pronase, elastase from Pseudomonas aeruginosa, elastase from human leukocytes. Put plainly: Stability of polypeptides against protease (HPLC). It is filed as in vitro ADME. The conditions noted are these: 8 h incubation with trypsin, P. aeruginosa elastase or human leukocyte elastase.
Method: As a positive control, LL-37 (0.1 mg/mL) was also incubated with trypsin (0.1 mg/mL) or pronase (12 mg/L) or Pseudomonas Aeruginosa elastase (0.6 mg/L) in Tris buffer (pH 7.4) at 37° C. LL-37 (0.1 mg/mL) was incubated with elastase from human leukocytes (2.5 mg/L) in sodium acetate buffer at 37° C. After 8 h of incubation, the samples were taken out for HPLC analyses.

Regarding `C[C@H]1c2cccc(O)c2C(=O)C2=C(O)[C@]3(O)C(=O)C(C(N)=O)=C(O)[C@@H](N(C)C)[C@@H]3[C@@H](O)[C@@H]21` [Doxycycline, doxycycline], the MIC of antibiotic was found to be 4.5 µM in series [1] and 288.0 µM in series [2].
For the molecule `[H]/N=C(/N)N[C@H]1[C@H](O)[C@@H](O)[C@H](O[C@@H]2O[C@@H](C)[C@](O)(C=O)[C@H]2O[C@@H]2O[C@@H](CO)[C@H](O)[C@@H](O)[C@@H]2NC)[C@@H](N/C(N)=N\[H])[C@@H]1O` [Streptomycin, streptomycin], the MIC of antibiotic in series [3], in series [4] and in series [5] was 6.9 µM in each case.
Take gentamicin: the MIC of antibiotic in series [1] turned out to be 2.1 µM; in series [2] it was 8.4 µM.
On the same counts, the results for `CO[C@H]1/C=C/O[C@@]2(C)Oc3c(C)c(O)c4c(O)c(c(/C=N/N5CCN(C)CC5)c(O)c4c3C2=O)NC(=O)/C(C)=C\C=C\[C@H](C)[C@H](O)[C@@H](C)[C@@H](O)[C@@H](C)[C@H](OC(C)=O)[C@@H]1C` [Rifampicin, rifampicin] are 9.7 µM and 77.8 µM.
As to LL-37, in series [6], the “proteolytic degradation by HPLC” value was “readily degraded”.

Values taken from patent US11124605B2, “Antimicrobial alpha-helical cationic polypeptides” (priority 2015, dated 2021).
